Data on one compound can be found in patent publication US20020177580A1, “Means and method for hormonal contraception” (priority 2001, published 2002).

For one data set, the system named is women. The data set can be described thus: Clinical study with dydrogesterone as progestogen-only preparation (Example 5). Type of data set: in vivo, human. The settings on record: 20 mg dydrogesterone once a day, uninterruptedly for 4 months. From the text: Women participating in the study described in these examples are all selected on the basis that they are users of ‘high’ dose monophasic ethinyl estradiol-containing combined oral contraceptives. The reasons for applying this selection criterion is that there is a dose-relationship between follicular development and ethinyl estradiol whether given alone or in combination with a progestogen, i.e. less follicular development in the presence of the higher dose. Participation of the females involved in the study starts at a moment of (almost) complete suppression of follicular development. This condition is not met if a female has her first day of bleeding in a natural cycle, after a tablet-free interval, or immediately after a low-dose combined oral contraceptive.
A clinical study with dydrogesterone as a progestogen-only preparation is conducted in 8 women who were selected on the basis of the criteria mentioned in Example 1. The 8 women receive a 20 mg dosage of dydrogesterone once a day, uninterruptedly during a period of 4 months.

For data set [1] the following is noted: hormone replacement therapy with 17beta-estradiol dydrogesterone (Grisar et al., 1999); cited from earlier work.
The next data set deals with ovulation. To be noted: humans; reported by Claassen et al., Acta Endocrinologica (1967); cited from earlier work.
The conditions of data set [2]: compared with commercially used synthetic progestogens; cited from earlier work.

SMILES strings stand for the structures. Entries after “also recorded” stand apart in the source; their conditions may differ.

For the compound `CC(=O)[C@H]1CC[C@H]2[C@@H]3C=CC4=CC(=O)CC[C@@]4(C)[C@@H]3CC[C@]12C` [dydrogesterone, 9β,10α-pregna-4,6-diene-3,20-dione], in the data set on women, the irregular bleeding entry is on record as “some unpredictable irregular bleeding”, the menses flow result is “reduction of the usual menses flow” and the ovulation inhibition entry is on record as “Ovulation is inhibited”. For the same compound, the “adverse effects on blood pressure” value in data set [1] was “no adverse effects on blood pressure”. The inhibition of ovulation entry with ovulation is recorded as “cannot be used to inhibit ovulation; also recorded: does not inhibit ovulation in humans”. Further, the “estrogenic, glucocorticoid, anabolic or androgenic properties” value in data set [2] was “does not exhibit estrogenic, glucocorticoid, anabolic or androgenic properties”.
